From patent publication US20240181049A1, “HARNESSING THE POWER OF MICROBIOTA AND METABOLITES FOR THE TREATMENT OF CANCER” (UTI LIMITED PARTNERSHIP, priority 2019, published 2024)

How the values were obtained:
MC38 tumor cells = experiment: MC38 tumor cell viability in vitro; format: cell-based; settings: direct exposure in vitro, 72 hours
Experimental: FIG. 17A-17B. […] (a) MC38 tumor cells were treated with the indicated doses of inosine in vitro for 72 hours. Cell death and survival was assessed through flow cytometry. (b) MC38 tumor cells expressing full length ovalbumin (MC38-OVA) were treated with the indicated doses of inosine in vitro for 72 hours. In parallel, OVA-specific naïve CD4 and CD8 T cells from spleens of OT-II and OT-I mice, respectively, were activated with anti-CD3/anti-CD28 beads and rmIL-2 (20 IU/ml) for 72 hours. Inosine was then washed away from conditioned MC38-OVA cells and fresh medium together with activated T cells were added (100,000 MC38-OVA cells+25,000 CD4 cells+25,000 CD8 cells). 72 hours later, cell death and survival of MC38-OVA cells was assessed through flow cytometry. Grey and black dash-dotted lines indicate MC38-OVA cell viability and death when co-cultured with naïve OVA-specific CD4 and CD8 T cells. Data are mean±SEM and pooled from two individual experiments. n=6 biological replicates/condition. #, & P<0.05, **, P<0.01; (**=0.0001 vs 10 mM, #0.001 vs 10 mM and & 1 vs 10 mM)

[1] = system: naïve OVA323-339-specific OT-II CD4^+ T cells; experiment: BMDC / naive OT-II CD4+ T cell co-culture, Th1 differentiation; format: cell-based, mice; settings: 2 mM inosine, 48 hours
Description: FIG. 4A-4K: Effect of inosine on T cell differentiation and dependency on classical dendritic cells of ICB therapy efficacy. (a) Scatter plot of untargeted metabolomics data in the serum of anti-CTLA-4 treated, tumor-bearing B.p. monocolonized compared to C.sp. monocolonized and germ-free (GF) mice. Grey circles or dotted grey circles depict inosine or inosine fragments/adducts, respectively. […] (c) Naïve CD4^+ T cells were co-cultured with bone marrow derived dendritic cells and IFN-γ. Quantification of T-bet^+CD3ε^+CD4^+ T cells 48 hours after co-culture in the presence or absence of inosine, A2A receptor inhibitor (ZM241385), cell permeable cAMP (db-cAMP) and protein kinase A inhibitor (RP-8-CPT-CAMPS). (d) Same as (c) without IFN-γ. (e) Representative plot and quantification (left and right panel) of phospho-CREB (Ser133) levels in naïve CD4^+ T cells cultured with anti-CD3/anti-CD28 coated beads for 1 hour in the presence or absence of inosine. (f) Schematic overview of experimental setup to deplete classical dendritic cells during MC38 tumor challenge and anti-CTLA-4 treatment. Intratumoral (g) frequency of CD8^+ T cells (h) IFN-γ^+CD8^+ T cells. (i and j) same as (g and h), but CD4^+ T cells and (k) tumor weight at […]. Data are mean±SEM and pooled from two individual experiments (a-b) n=5-8 samples/group (c-e) 10-15 biological replicates/group (f-k) 10 mice/group. *, P<0.05; **, P<0.01; ***, P<0.001; ****, P<0.0001
Bone marrow derived dendritic cells (BMDCs) were generated from flushed bone marrow cells, maintained in RPMI-1640 (Sigma) supplemented with 10% FBS, 50 μm 2-Mercaptoethanol (Sigma) 100 units/ml penicillin, 100 μg/ml streptomycin sulfate and 20 ng/ml rm GM-CSF (R&D). Medium was exchanged after 48 hours and 72 hours. 5 days after culture, a magnetic cell sorting step was performed to enrich for CD11c^+ cells (Miltenyi Biotec). CD11c^+ cells were seeded in 96 flat bottom wells and pulsed with 20 ng/ml OVA323-339 and 100 ng/ml LPS (both Sigma) for 18 hours. In some conditions BMDCs were also cultured with 10 ng/ml rmIFN-γ (R&D).
Negative selection magnetic cell sorting (Miltenyi Biotec) was used to enrich naïve OT-II CD4^+ T cells. Naïve OT-II CD4^+ T cells were then co-cultured with BMDCs at a ratio of 2:1 or stimulated with anti-CD3/anti-CD28 T cell activation beads (Thermofisher) at a ratio of 1:1 for 48 hours prior to restimulation with PMA/lonomycin in the presence of Brefeldin-A and analysis (see Single cell preparation and flow cytometry for details). In some conditions cells were additionally cultured with various combinations of 2 μg/ml anti-CTLA-4, 100 μM db-cAMP (Sigma), 5 μM ZM 241385 (Sigma), 300 μM Rp-8-CPT-CAMPS (Cayman Chemical) or 2 mM inosine (Sigma) as described previously (He et al., 2017; Yao et al., 2013).

A2AR = A2AR (Homo sapiens, UniProt P29274); settings: compared to adenosine; cited from earlier work
Sequence of A2AR (P29274 whole entry): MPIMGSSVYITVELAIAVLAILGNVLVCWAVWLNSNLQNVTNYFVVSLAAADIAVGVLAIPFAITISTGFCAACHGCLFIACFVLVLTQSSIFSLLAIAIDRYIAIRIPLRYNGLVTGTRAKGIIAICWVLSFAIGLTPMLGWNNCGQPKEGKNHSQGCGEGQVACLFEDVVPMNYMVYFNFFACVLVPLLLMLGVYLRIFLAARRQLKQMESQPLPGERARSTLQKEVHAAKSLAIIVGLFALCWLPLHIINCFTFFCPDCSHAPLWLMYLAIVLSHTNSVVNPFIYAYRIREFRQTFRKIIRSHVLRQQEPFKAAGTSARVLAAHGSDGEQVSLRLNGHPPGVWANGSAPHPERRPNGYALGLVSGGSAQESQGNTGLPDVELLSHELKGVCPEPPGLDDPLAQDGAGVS

## OC[C@H]1O[C@@H](n2cnc3c(O)ncnc32)[C@H](O)[C@@H]1O [inosine]
MC38 tumor cells
  tumor cell viability: did not exert any effects on tumor cell viability
MC38 tumor cells; listed as Inosine
  tumor cell viability: does not directly impact tumor cell viability
[1]; in the absence of IFN-γ
  Th1 induction: reduced Th1 induction
[1]; in the presence of exogenous IFN-γ
  Th1 differentiation of naïve T cells (T-bet+): strongly boosted Th1 differentiation of naïve T cells
A2AR
  A2AR-dependent signaling bias, preference for ERK1/2 phosphorylation: 3.3 fold
